From ChEMBL document CHEMBL1149774, “Synthesis of N-(5,7-diamino-3-phenyl-quinoxalin-2-yl)-3,4,5-substituted anilines and N-[4[(5,7-diamino-3-phenylquinoxalin-2-yl)amino]benzoyl]-l-glutamic acid diethyl ester: evaluation of in vitro anti-cancer and anti-folate activities” (Eur J Med Chem, 2008)
pKi: −log10 of the molar value. Activity calls are given as the source filed them. No cut-off for these calls is given here.

Columns and labels:
[1] = target: Thymidylate synthase (Escherichia coli) (UniProt C3SWJ7); test: Inhibition of Escherichia coli thymidylate synthase at 10 uM
Thymidylate synthase [2] = target: T1, Thymidylate synthase (Lactobacillus casei, UniProt P00469)
T1 sequence (P00469 whole entry): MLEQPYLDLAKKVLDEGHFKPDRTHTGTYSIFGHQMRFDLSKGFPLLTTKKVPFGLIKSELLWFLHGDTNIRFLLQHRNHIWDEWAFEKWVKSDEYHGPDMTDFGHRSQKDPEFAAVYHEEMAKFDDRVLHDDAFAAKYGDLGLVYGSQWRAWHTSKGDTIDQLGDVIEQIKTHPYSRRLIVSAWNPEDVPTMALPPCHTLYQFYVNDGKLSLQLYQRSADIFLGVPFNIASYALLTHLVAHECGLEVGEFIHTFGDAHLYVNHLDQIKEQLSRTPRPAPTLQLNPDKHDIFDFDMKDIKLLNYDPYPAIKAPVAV
Description: Inhibition of Lactobacillus casei thymidylate synthase

CCRF-CEM = test: Growth inhibition of human CCRF-CEM cells after 48 hrs by SRB staining method; assay type: functional
Thymidylate synthase [3] = target: Thymidylate synthase (Escherichia coli, UniProt C3SWJ7)
Sequence of Thymidylate synthase (Escherichia coli, UniProt C3SWJ7) (C3SWJ7 whole entry): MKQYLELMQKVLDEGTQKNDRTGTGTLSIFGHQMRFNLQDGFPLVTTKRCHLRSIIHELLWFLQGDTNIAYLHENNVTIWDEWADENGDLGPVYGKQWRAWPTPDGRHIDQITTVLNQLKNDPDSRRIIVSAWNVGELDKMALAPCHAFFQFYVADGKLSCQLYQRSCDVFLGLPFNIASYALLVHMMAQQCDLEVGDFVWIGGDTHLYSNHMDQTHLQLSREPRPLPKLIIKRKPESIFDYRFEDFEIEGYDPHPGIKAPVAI

Sequence of Thymidylate synthase (Escherichia coli) (C3SWJ7 1-264): as the sequence (C3SWJ7 whole entry) above

For COc1ccc(Nc2nc3cc([N+](=O)[O-])cc([N+](=O)[O-])c3nc2-c2ccccc2)cc1, the Activity [1] was “inactive” and the pKi (Thymidylate synthase [2]) was 5.10.
Work on CN(Cc1cnc2nc(N)nc(N)c2n1)c1ccc(C(=O)N[C@@H](CCC(=O)O)C(=O)O)cc1 [METHOTREXATE] yielded a GI50 (CCRF-CEM) of 0.0398 µM.
COc1ccc(Nc2nc3cc([N+](=O)[O-])cc([N+](=O)[O-])c3nc2-c2ccccc2)cc1OC showed a pKi (Thymidylate synthase [3]) of 6.00 and a pKi (Thymidylate synthase [2]) of 4.62.
In the case of COc1cc(Nc2nc3cc([N+](=O)[O-])cc([N+](=O)[O-])c3nc2-c2ccccc2)cc(OC)c1, the Activity [1] was “inactive” and the pKi (Thymidylate synthase [2]) was 5.22.
CCOC(=O)CCC(NC(=O)c1ccc(Nc2nc3cc([N+](=O)[O-])cc([N+](=O)[O-])c3nc2-c2ccccc2)cc1)C(=O)OCC (stereo unspecified) was tested, and the pKi (Thymidylate synthase [3]) was 5.52 and the pKi (Thymidylate synthase [2]) was 4.44.
COc1cc(Nc2nc3cc([N+](=O)[O-])cc([N+](=O)[O-])c3nc2-c2ccccc2)cc(OC)c1OC was tested, and the Activity [1] was “inactive” and the pKi (Thymidylate synthase [2]) was 4.96.
